Data: patent US11344559B2, “PI3KGAMMA inhibitors” (The Regents of the University of California, priority 2019, dated 2022)

Assays:
Type in all cases: cell-based
IL12b protein levels [1] = assay: Secondary screening: IL12b protein ELISA in M1 polarized bone marrow derived macrophages; settings: Z score of IL12b protein (ELISA); 1 μM compound, 24 h, IFNg+LPS (M1) polarized bone marrow derived macrophages
Protocol: (§1) Primary screening was performed on 507 compounds identified by the above-described computational screening. Bone marrow derived macrophages were plated into 96 well plates at d7 post-harvest and incubated with 1 μM compound and polarization reagents for 24 h. Primary screening was performed on cells polarized with interferon gamma (IFNg)+Lipopolysaccharide (LPS) (M1 polarization). Methods of inducing macrophage polarization are known in the art, e.g., as described in Mosser et al., Curr. Protoc. Immunol. 2008 November; Chapter 14:Unit 14.2. doi: 10.1002/0471142735.im1402s83. After 24 h, cell supernatants were removed and screened for IL12b and CCL2 protein levels using an enzyme linked immunosorbent assay (ELISA). Additionally, viability of polarized macrophages incubated with compounds was measured using an MTT assay, a colorimetric assay that measures cell metabolic activity by quantifying NAD(P)H-dependent cellular oxidoreductase reduction of the tetrazolium dye MTT 3-(4,5-dimethylthiazol-2-yl)-2,5-diphenyltetrazolium bromide to its insoluble purple colored formazan. Compounds that increased IL12b protein levels or decreased CCL2 protein levels and reduced viability less than 10% were selected for secondary screening. Secondary screening was performed as described for primary screening with a subset of 141 of the original compounds.

CCL2 protein levels [2] = assay: Primary screening: CCL2 protein ELISA in M1 polarized bone marrow derived macrophages; settings: Z score of CCL2 protein (ELISA); 1 μM compound, 24 h, IFNg+LPS (M1) polarized bone marrow derived macrophages
Protocol: as §1

IL12b protein levels [3] = assay: IL12b protein expression (ELISA) after M1 polarization with bulk synthesized compounds; settings: 10 micromolar compound 1 h before IFNgamma+LPS (M1) polarization, supernatants 24 h post-stimulation, read-out: IL12B protein expression (Percent of Control)
Protocol: Compounds with the highest activity levels in the primary, secondary and tertiary screening assays were resynthesized in bulk and then tested for their effects on protein expression of inflammatory cytokines after M1 (IFNg+LPS) macrophage polarization. Bone marrow derived macrophages were plated into 12 well plates at d7 post-harvest and incubated for 1 h with 10 micromolar compound prior to polarization in the presence of bulk synthesized compounds 1-14. Cells were then polarized by the addition of either IFNgamma+LPS (M1) and cell supernatants were harvested 24 h post-stimulation. Methods of inducing macrophage polarization are known in the art, e.g., as described in Mosser et al., Curr. Protoc. Immunol. 2008 November; Chapter 14:Unit 14.2. doi: 10.1002/0471142735.im1402s83. After 24 h, cell supernatants were removed and screened for IL12b protein levels using an enzyme linked immunosorbent assay (ELISA). Increases in IL12b protein levels induced by compounds were recorded as percent increase in IL12b protein expression compared to IL12b expression in the absence of compounds.

CCL2 protein levels [4] = assay: Secondary screening: CCL2 protein ELISA in M1 polarized bone marrow derived macrophages; settings: Z score of CCL2 protein (ELISA); 1 μM compound, 24 h, IFNg+LPS (M1) polarized bone marrow derived macrophages
Protocol: as §1

IL12b protein levels [5] = assay: Primary screening: IL12b protein ELISA in M1 polarized bone marrow derived macrophages; settings: Z score of IL12b protein (ELISA); 1 μM compound, 24 h, IFNg+LPS (M1) polarized bone marrow derived macrophages
Protocol: as §1

IL-1beta expression = assay: RNA screening: IL-1beta expression in M1 (IFNg+LPS) polarized macrophages, quantitative RT-PCR; set-up: key: −: significant decrease in mRNA vs control (mRNA levels above 50% of control); −−: significant decrease in mRNA vs control (mRNA levels below 50% of control); +: significant increase in mRNA vs control; =: no significant change vs control; settings: mRNA vs control; 1 μM compound 1 h before IFNgamma+LPS (M1) polarization, mRNA harvested 6 h post-stimulation
Protocol: (§2) Compounds with the highest activity levels in the primary and secondary screening assays were tested for their effects on transcription of inflammatory cytokines after M1 (IFNg+LPS) and M2 (IL-4) macrophage polarization. Bone marrow derived macrophages were plated into 12 well plates at d7 post-harvest and incubated for 1 h with 1 μM compound prior to polarization. Cell were then polarized by the addition of either IFNgamma+LPS (M1) or IL-4 (M2) and mRNA was harvested 6 h post-stimulation. Quantitative RT-PCR was used to determine the levels of IL-1beta expression in M1 polarized macrophages and of Arginase-1 and TGF-beta expression in M2 polarized macrophages. Compounds were selected from RNA screening that increased IL-1beta expression or decreased Arginase-1 or TGF-beta expression.

TGF-beta expression = assay: RNA screening: TGF-beta expression in M2 (IL-4) polarized macrophages, quantitative RT-PCR; set-up: key: −: significant decrease in mRNA vs control (mRNA levels above 50% of control); −−: significant decrease in mRNA vs control (mRNA levels below 50% of control); +: significant increase in mRNA vs control; =: no significant change vs control; settings: mRNA vs control; 1 μM compound 1 h before IL-4 (M2) polarization, mRNA harvested 6 h post-stimulation
Protocol: as §2

Arginase-1 expression = assay: RNA screening: Arginase-1 expression in M2 (IL-4) polarized macrophages, quantitative RT-PCR; settings: Macrophage; mRNA vs control; 1 μM compound 1 h before IL-4 (M2) polarization, mRNA harvested 6 h post-stimulation; read-out: RNA Screening IL-4 Arg 1
Protocol: as §2

Structure (SMILES) | Secondary Screen ZIL12b (IL12b protein levels [1]) | Primary Screen ZCCL2 (CCL2 protein levels [2]) | activity at 10 µM (IL12b protein levels [3]) [%] | Secondary Screen ZCCL2 (CCL2 protein levels [4]) | Primary Screen ZIL12b (IL12b protein levels [5]) | RNA Screening Ifng + LPS Il1b (IL-1beta expression) | RNA Screening IL-4 Tgfb (TGF-beta expression) | mrna remaining at 1 µM (Arginase-1 expression) [%]
CCCn1cc(NC(=O)NCc2nn(C)c3ccc(C)cc23)nn1 [Compound 1, N-[(1,5-dimethyl-1H-indazol-3-yl)methyl]-N′-(1-propyl-1H-1,2,3-triazol-4-yl)urea] | 1.05 | −1.85 | 134 | −0.72 | 0.93 |  |  | 
COc1cccc2ccc(-c3ccc(N)nc3)nc12 [Compound 2, 5-(8-methoxyquinolin-2-yl)pyridin-2-amine] | 0.81 |  |  | 0.8 |  | + | − (significant decrease in mRNA vs control (mRNA levels above 50% of control)) | > 50
CCc1n[nH]c(SCC(=O)NCCC(=O)Nc2nccs2)n1 [Compound 3, 3-({[(3-ethyl-1H-1,2,4-triazol-5-yl)thio]acetyl}amino)-N-1,3-thiazol-2-ylpropanamide] | 1.56 |  |  | 1.33 |  | = | = | > 50
CCc1cc(NCCc2csc(N)n2)n2nc(C)c(C)c2n1 [Compound 4, N-[2-(2-amino-1,3-thiazol-4-yl)ethyl]-5-ethyl-2,3-dimethylpyrazolo[1,5-a]pyrimidin-7-amine] | 0.58 | 1.08 | 92 | −1.61 | 1.46 |  |  | 
CC(=O)N1CCCn2nc(CNc3nc4ccccc4s3)cc2C1 [Compound 5, N-[(5-acetyl-5,6,7,8-tetrahydro-4H-pyrazolo[1,5-a][1,4]diazepin-2-yl)methyl]-1,3-benzothiazol-2-amine] | 0.72 | 1.04 | 127 | −1.33 | 1.64 |  |  | 
CC(C)NC(=O)NCC1CCCN(Cc2ccc3c(c2)OCCO3)C1 (stereo not drawn) [Compound 6, N-{[1-(2,3-dihydro-1,4-benzodioxin-6-ylmethyl)piperidin-3-yl]methyl}-N′-isopropylurea] | 2.4 | 0.94 | 120 | 0.16 | 1.96 | + | − (significant decrease in mRNA vs control (mRNA levels above 50% of control)) | > 50
CC(O)c1cn(CC2CCN(C(=O)c3cscn3)CC2)nn1 (stereo not drawn) [Compound 7, 1-(1-{[1-(1,3-thiazol-4-ylcarbonyl)-4-piperidinyl]methyl}-1H-1,2,3-triazol-4-yl)ethanol] | 1.58 | −1.62 | 114 | −1.5 | 0.38 | + | −− (significant decrease in mRNA vs control (mRNA levels below 50% of control)) | < 50
CC(=O)N1CC2(CCN(S(C)(=O)=O)CC2)CC1C(=O)O (stereo not drawn) [Compound 8, 2-acetyl-8-(methylsulfonyl)-2,8-diazaspiro[4.5]decane-3-carboxylic acid] | 0.74 | −3.6 | 118 | −1.79 | 0.13 |  |  | 
O=C(O)c1nc[nH]c1C(=O)N1CCN(c2ccccn2)CC1 [Compound 9, 5-[(4-pyridin-2-ylpiperazin-1-yl)carbonyl]-1H-imidazole-4-carboxylic acid] | 0.92 | −5.07 | 131 | −1.53 | 0.54 | + | + | > 50
CC(=O)N1CCN(Cc2cnn(-c3ccccc3Cl)c2)CC(O)C1 (stereo not drawn) [Compound 10, 1-acetyl-4-{[1-(2-chlorophenyl)-1H-pyrazol-4-yl]methyl}-1,4-diazepan-6-ol] | 1.64 | −1.59 | 121 | −0.36 | 0.55 | = | −− (significant decrease in mRNA vs control (mRNA levels below 50% of control)) | < 50
OCCc1cn(C2CCN(Cc3cccnc3)CC2)nn1 [Compound 11, 2-{1-[1-(3-pyridinylmethyl)-4-piperidinyl]-1H-1,2,3-triazol-4-yl}ethanol] | 2.04 | −2.99 | 127 | −1.46 | −1.17 | + | − (significant decrease in mRNA vs control (mRNA levels above 50% of control)) | < 50
CCc1n[nH]c(SCC(=O)N2CCC3(CC2)CC(C(=O)O)N(C)C3)n1 (stereo not drawn) [Compound 12, 8-{[(3-ethyl-1H-1,2,4-triazol-5-yl)thio]acetyl}-2-methyl-2,8-diazaspiro[4.5]decane-3-carboxylic acid] |  |  | 133 |  |  |  |  | 
CN(C)c1cccc(C(=O)N2CCC3(CC2)CC(C(=O)O)N(C)C3)c1 (stereo not drawn) [Compound 13, 8-[3-(dimethylamino)benzoyl]-2-methyl-2,8-diazaspiro[4.5]decane-3-carboxylic acid] |  |  | 125 |  |  |  |  | 
CNc1ncccc1C(=O)N1CCC2(CC1)CC(C(=O)O)N(C)C2 (stereo not drawn) [Compound 14, 2-methyl-8-{[2-(methylamino)-3-pyridinyl]carbonyl}-2,8-diazaspiro[4.5]decane-3-carboxylic acid] |  |  | 122 |  |  |  |  | 
CCC(=O)N1CCC(c2ccc3c(c2)OCO3)C(O)C1 (stereo not drawn) [Compound 15, 1-(4-(benzo[d][1,3]dioxol-5-yl)-3-hydroxypiperidin-1-yl)propan-1-one] | 0.25 |  |  | −0.95 |  | + |  | < 50
O=C(O)CCc1cc2n(n1)CCCN(Cc1c[nH]nc1C(=O)O)C2 [Compound 16, 4-((2-(2-carboxyethyl)-7,8-dihydro-4H-pyrazolo[1,5-a][1,4]diazepin-5(6H)-yl)methyl)-1H-pyrazole-3-carboxylic acid] | 0.56 |  |  | −0.84 |  | + |  | < 50
